As usually defined, the IC50 is the concentration that gives 50% inhibition.

Molecules are shown by their SMILES. Where a name gives a salt, the structure may show the parent alone.

Holding throughout (format): biochemical
The target in one assay is T1, Human recombinant MMP-2 (Homo sapiens, UniProt P08253).
T1 construct: made in house; host or cells: MMP-2-transfected p2AHT2 cells
T1 sequence (P08253 110-660): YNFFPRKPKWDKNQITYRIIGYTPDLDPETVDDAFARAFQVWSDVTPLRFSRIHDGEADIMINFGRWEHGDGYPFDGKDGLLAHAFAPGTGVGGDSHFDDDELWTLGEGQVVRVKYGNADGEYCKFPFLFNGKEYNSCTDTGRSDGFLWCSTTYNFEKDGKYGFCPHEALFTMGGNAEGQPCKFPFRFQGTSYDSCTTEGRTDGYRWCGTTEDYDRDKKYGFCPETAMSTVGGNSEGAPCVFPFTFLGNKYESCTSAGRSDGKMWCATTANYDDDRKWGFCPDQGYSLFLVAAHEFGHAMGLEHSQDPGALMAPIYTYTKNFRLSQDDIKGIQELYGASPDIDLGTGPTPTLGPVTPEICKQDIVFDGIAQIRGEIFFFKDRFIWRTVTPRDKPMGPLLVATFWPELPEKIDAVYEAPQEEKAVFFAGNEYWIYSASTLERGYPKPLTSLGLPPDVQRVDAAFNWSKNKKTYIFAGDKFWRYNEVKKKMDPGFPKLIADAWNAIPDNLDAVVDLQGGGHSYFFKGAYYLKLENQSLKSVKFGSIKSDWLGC
Nature of the assay: In vitro MMP inhibition, IC50 determination (fluorogenic substrate I). A digest of the protocol: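 IC50 was derived from the concentration-dependent fall in fluorescence (ex 328, em 415 nm) on Gly-Leu cleavage of 4 μM MCA/Dpa-quenched substrate I. Assays ran at room temperature in pH 7.5 Tris/NaCl/CaCl2/Brij buffer with MMP-2 activated by trypsin or APMA; inhibitors were diluted from 1% DMSO stocks.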

Assay [1] concerns the target T2, Human recombinant MMP-14 (Homo sapiens, UniProt P50281).
T2 construct: The catalytic domain enzyme was expressed in E. coli inclusion bodies, solubilized in urea; made in house
Nature of the assay: In vitro MMP inhibition, Ki determination (fluorogenic substrate II). As for the experimental part: Several hydroxamates and salts thereof were analyzed in in vitro assays to determine their ability to inhibit the MMP cleavage of peptide substrates. Inhibition (Ki) and IC50 constants were calculated from the assayed hydroxamate-MMP interactions.
Human recombinant MMP-1, MMP-2, MMP-9, MMP-13, and MMP-14 were used in this assay. All enzymes were prepared in Assignee's laboratories following usual laboratory procedures. Protocols for the preparation and use of these enzymes are available in the scientific literature. See, e.g., Enzyme Nomenclature (Academic Press, San Diego, Calif., 1992) (and the citations therein). See also, Frije et al., J. Biol. Chem., 26(24), 16766-73 (1994).
The MMP-14 full length cDNA was provided by Dr. Gregory Goldberg of Washington University (St. Louis, Mo.). The catalytic domain enzyme was expressed in E. coli inclusion bodies, solubilized in urea, purified on a preparative […] reverse phase HPLC column, and then refolded in the presence of zinc acetate and purified for use.
All MMPs were activated using 4-aminophenylmercuric acetate (“APMA”, Sigma Chemical, St. Louis, Mo.) or trypsin. MMP-9 also was activated using human recombinant MMP-3 (purified in Assignee's laboratory following standard cloning and purification techniques).
Two fluorogenic, methoxycoumarin-containing polypeptide substrates were used in the MMP inhibition assays:
MCA-ArgProLeuGlyLeuDpaAlaArgGluArgNH2 (II)
Here, “Dpa” is 3-(2,4-dinitrophenyl)-L-2,3-diaminopropionyl group, and “MCA” is 7-methoxycoumarin-4-yl acetyl. Substrate (I) was purchased from Baychem (Redwood City, Calif.), and substrate II was prepared Assignee's laboratory. Substrate I was used in the IC50 determination assays, while substrate II was used in the Ki determination assays. In the absence of MMP inhibitory activity, either substrate is cleaved at the Gly-Leu peptide bond. This cleavage separates the highly fluorogenic peptide from the 2,4-dinitrophenyl quencher, thus resulting in increase of fluorescent intensity.
The stock solutions of the assayed hydroxamates (or salts thereof) were prepared in 1% dimethyl sulfoxide (DMSO). These stock solutions were diluted in Buffer A (100 mM Tris-HCl, 100 mM NaCl, 10 mM CaCl2, 0.05% polyoxyethylene 23 lauryl ether, pH 7.5) to obtain solutions with different hydroxamate concentrations, i.e., assay solutions with different concentrations of the assayed MMP inhibitory compound. The experiment controls contained the same amount of Buffer A/DMSO as the assayed sample, but contained no hydroxamate (or salt thereof).
The assays from which the Ki determinations were made were performed as follows. The assayed hydroxamate samples were incubated in separate wells of untreated white polystyrene plates (Nunc Nalgene International, Rochester, N.Y.), and analyzed on a Tecan SpectraFlour Plus plate reader. The excitation wavelength was 330 nm, and the emission wavelength—420 nm. All samples (assayed hydroxamates and controls) were incubated in separate plate wells at room temperature for 1 hr in the presence of 4 μM of MMP substrate (II). In the absence of MMP inhibitory activity, substrate II was cleaved at the Gly-Leu bond resulting in an increase of relative fluorescence. Inhibition was observed as a reduced rate of this increase in relative fluorescence. The various hydroxamates were analyzed using a single low enzyme concentration with a single substrate concentration fixed at or below the Km. This protocol is a modification of method by Knight et al., FEBS Lett., 296(3), 263-266 (1992). Apparent inhibitory constants were determined by non-linear regression of reaction velocity as a function of inhibitor and enzyme concentration using Morrison's equation, as described by Kuzmic, Anal. Biochem. 286, 45-50 (2000). Modifications were made in the non-linear regression method to allow a common control reaction rate and effective enzyme concentration to be shared between all dose-response relationships on a given assay plate. […]

Assay [2] concerns the target T2, Human recombinant MMP-14. Nature of the assay: In vitro MMP inhibition, IC50 determination (fluorogenic substrate I). A digest of the protocol:
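IC50 came from reduced fluorescence (ex 328 nm, em 415 nm) as inhibitor concentration rose, with 4 μM substrate I cleaved at Gly-Leu. Room-temperature incubation in pH 7.5 Tris buffer with 10 mM CaCl2; the E. coli-expressed, refolded MMP-14 catalytic domain was activated with trypsin or APMA.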

Where [3] appears, read: substrate (I) 4 μM, room temperature, values not in parenthesis.
[4] abbreviates: substrate (II) 4 μM, 1 hr room temperature, apparent Ki, values in parenthesis.

As to `O=C(NO)C1(S(=O)(=O)c2ccc(OCCCc3nc(-c4ccc(OC(F)(F)F)cc4)no3)cc2)CCOCC1` [Example 31, tetrahydro-N-hydroxy-4-[[4-[3-[3[4-(trifluoromethoxy)phenyl]-1,2,4-oxadiazol-5-yl]propoxy]phenyl]sulfonyl]-2H-pyran-4-carboxamide], the IC50 on Human recombinant MMP-2 (setting [3]) is 0.346 µM; at Human recombinant MMP-14 [2] (setting [3]), > 10 µM. Further, at Human recombinant MMP-14 [1] (setting [4]), the Ki is > 10 µM.
For `O=C(NO)C1(S(=O)(=O)c2ccc(OCCc3cccc(-c4ccccn4)c3)cc2)CCOCC1` [Example 40], the values for the IC50 on Human recombinant MMP-2 (setting [3]) and on Human recombinant MMP-14 [2] (setting [3]) were 0.112 µM and > 10 µM, respectively. Besides, the Ki at Human recombinant MMP-14 [1] (setting [4]) was > 10 µM.
`CCN1CCC(C(=O)NO)(S(=O)(=O)c2ccc(OCCCc3nc(-c4ccc(OC(F)(F)F)cc4)no3)cc2)CC1` [Example 41, 1-ethyl-N-hydroxy 4-{[4-(3-{3-[4-(trifluoromethoxy)phenyl]-1,2,4-oxadiazol-5-yl}propoxy)phenyl]sulfonyl}piperidine-4-carboxamide Hydrochloride]: the 50% inhibitory concentration (IC50) on Human recombinant MMP-2 (setting [3]) is 0.357 µM; at Human recombinant MMP-14 [2] (setting [3]), > 10 µM. The Ki at Human recombinant MMP-14 [1] (setting [4]) was > 10 µM.
For `COCCN1CCC(C(=O)NO)(S(=O)(=O)c2ccc(OCCCc3nc(-c4ccc(OC(F)(F)F)cc4)no3)cc2)CC1` [Example 42], the results for the IC50 at Human recombinant MMP-2 (setting [3]) and at Human recombinant MMP-14 [2] (setting [3]) were 0.1 µM and > 10 µM, respectively. The Ki on Human recombinant MMP-14 [1] (setting [4]) is > 10 µM.
With `CCN1CCC(C(=O)NO)(S(=O)(=O)c2ccc(OCCCc3cccc(-c4ccccc4)c3)cc2)CC1` [Example 46], the half-inhibitory concentration (IC50) on Human recombinant MMP-2 (setting [3]) was 0.321 µM; on Human recombinant MMP-14 [2] (setting [3]), > 10 µM. The Ki at Human recombinant MMP-14 [1] (setting [4]) was > 10 µM.
Regarding `O=C(NO)C1(S(=O)(=O)c2ccc(OCCCn3nnc(-c4ccc(OC(F)(F)F)cc4)n3)cc2)CCN(C2CC2)CC1` [Example 49], the results for the IC50 at Human recombinant MMP-2 (setting [3]) and on Human recombinant MMP-14 [2] (setting [3]) were 0.274 µM and > 10 µM, respectively. For the same compound, the Ki at Human recombinant MMP-14 [1] (setting [4]) is > 10 µM.
`O=C(NO)C1(S(=O)(=O)c2ccc(OCCCc3nc(-c4ccc(OC(F)(F)F)cc4)no3)cc2)CCN(C2CC2)CC1` [Example 51, 1-cyclopropyl-N-hydroxy-4-{[4-(3-{3-[4-(trifluoromethoxy)phenyl]-1,2,4-oxadiazol-5-yl}propoxy)phenyl]sulfonyl}piperidine-4-carboxamide Hydrochloride]: the 50% inhibitory concentration (IC50) is 0.252 µM at Human recombinant MMP-2 (setting [3]) and > 10 µM at Human recombinant MMP-14 [2] (setting [3]). Besides, the Ki at Human recombinant MMP-14 [1] (setting [4]) was found to be 0.688 µM.
Taken in the same sequence, the figures for `O=C(NO)C1(S(=O)(=O)c2ccc(OCCCn3nnc(-c4ccc(OC(F)(F)F)cc4)n3)cc2)CCN(CC2CC2)CC1` [Example 53] were 0.384 µM, > 10 µM and > 10 µM.
With `CC(C)C(=O)c1cccc(CCCOc2ccc(S(=O)(=O)C3(C(=O)NO)CCOCC3)cc2)c1` [Example 95], the IC50 on Human recombinant MMP-2 (value outside parenthesis) was 0.0914 µM; at Human recombinant MMP-14 [2] (value outside parenthesis), > 10 µM. Besides, the Ki at Human recombinant MMP-14 [1] (value in parenthesis) is 5.41 µM.
Taken in the same sequence, the figures for `O=C(NO)C1(S(=O)(=O)c2ccc(OCCCc3cccc(Cc4ccccc4)c3)cc2)CCOCC1` [Example 98] were 0.316 µM, > 10 µM and > 10 µM.
Taken in the same sequence, the figures for `O=C(NO)C1(S(=O)(=O)c2ccc(OCCc3cccc(-c4ccncc4)c3)cc2)CCOCC1` [Example 113] were 0.0203 µM, 7.72 µM and 3.48 µM.
The corresponding values for `O=C(NO)C1(S(=O)(=O)c2ccc(OCCc3cccc(-c4ccccc4F)c3)cc2)CCOCC1` [Example 115] are 0.312 µM, > 10 µM and > 10 µM.
Take `O=C(NO)C1(S(=O)(=O)c2ccc(OCCc3cccc(-c4ccc(F)cc4)c3)cc2)CCOCC1` [Example 123]: the IC50 is 0.383 µM on Human recombinant MMP-2 (value outside parenthesis) and > 10 µM on Human recombinant MMP-14 [2] (value outside parenthesis). For the same compound, the Ki at Human recombinant MMP-14 [1] (value in parenthesis) was > 10 µM.
Regarding `O=C(NO)C1(S(=O)(=O)c2ccc(OCCc3cccc(-c4cccnc4)c3)cc2)CCOCC1` [Example 125], the IC50 on Human recombinant MMP-2 (value outside parenthesis) came out at 0.0273 µM; on Human recombinant MMP-14 [2] (value outside parenthesis), 5.82 µM. The Ki at Human recombinant MMP-14 [1] (value in parenthesis) worked out at 1.67 µM.
Taken in the same sequence, the figures for `Cc1ccc(-c2cccc(CCOc3ccc(S(=O)(=O)C4(C(=O)NO)CCOCC4)cc3)c2)cc1` [Example 127] were 1.38 µM, > 10 µM and > 10 µM.
For the compound `O=C(NO)C1(S(=O)(=O)c2ccc(OCCCc3cccc(-c4ccc(F)cc4)c3)cc2)CCN(C2CC2)CC1` [Example 139], the IC50 at Human recombinant MMP-2 (value outside parenthesis) is 0.208 µM; on Human recombinant MMP-14 [2] (value outside parenthesis), > 10 µM. The Ki on Human recombinant MMP-14 [1] (value in parenthesis) was > 10 µM.
For the compound `COCCN1CCC(C(=O)NO)(S(=O)(=O)c2ccc(OCCCc3cccc(-c4ccc(F)cc4)c3)cc2)CC1` [Example 140], the IC50 at Human recombinant MMP-2 (value outside parenthesis) was 0.048 µM; on Human recombinant MMP-14 [2] (value outside parenthesis), > 10 µM. The Ki at Human recombinant MMP-14 [1] (value in parenthesis) is > 10 µM.
Take `O=C(NO)C1(S(=O)(=O)c2ccc(OCCCc3cccc(-c4cccnc4)c3)cc2)CCOCC1` [Example 150]: the IC50 on Human recombinant MMP-2 (value outside parenthesis) came out at 0.136 µM; on Human recombinant MMP-14 [2] (value outside parenthesis) it was 6.63 µM. Moreover, on Human recombinant MMP-14 [1] (value in parenthesis), the Ki was 5.51 µM.
The corresponding values for `COCCN1CCC(C(=O)NO)(S(=O)(=O)c2ccc(OCCCc3nc(-c4ccccc4OC(F)(F)F)no3)cc2)CC1` [Example 152] are 0.0588 µM, > 10 µM and > 10 µM.
The corresponding values for `O=C(NO)C1(S(=O)(=O)c2ccc(OCCCc3cccc(Br)c3)cc2)CCOCC1` [Example 154] are 0.0109 µM, 9.12 µM and 3.91 µM.
For `CCc1ccccc1-c1noc(CCCOc2ccc(S(=O)(=O)C3(C(=O)NO)CCN(CCOC)CC3)cc2)n1` [Example 155], the IC50 on Human recombinant MMP-2 (value outside parenthesis) was 0.0138 µM; on Human recombinant MMP-14 [2] (value outside parenthesis), > 10 µM. At Human recombinant MMP-14 [1] (value in parenthesis), the Ki stood at 9.37 µM.
Taken in the same sequence, the figures for `O=C(NO)C1(S(=O)(=O)c2ccc(OCCOc3cccc(-c4ccccc4)c3)cc2)CCOCC1` [Example 157] were 0.182 µM, > 10 µM and > 10 µM.
Consider `Cc1ccc(-c2cccc(CCCOc3ccc(S(=O)(=O)C4(C(=O)NO)CCOCC4)cc3)c2)s1` [Example 639], for which the IC50 on Human recombinant MMP-2 (value outside parentheses) came out at 0.247 µM. Besides, on Human recombinant MMP-14 [1] (value in parentheses), the Ki is > 10 µM.

For the origin of these results see patent publication US20040024024A1, “Aromatic sulfone hydroxamates and their use as protease inhibitors” (priority 2001, published 2004).
